Source: ChEMBL document CHEMBL6078678, “Unveiling the Antimycobacterial Potential of Novel 4-Alkoxyquinolines: Insights into Selectivity, Mechanism of Action, and In Vivo Exposure” (J Med Chem, 2024)
Values after ≈ are worked out from the molar mass of the structure shown.

Test system: Mycobacterium tuberculosis
Test: Antibacterial activity against 2-(quinolin-4-yloxy)acetamide resistant Mycobacterium tuberculosis harboring qcrB gene T313A mutant
Type: functional

Compound `CCc1ccc(NCCCOc2cc(C)nc3ccc(Br)cc23)cc1` has an MIC of 3.13 µM (≈ 1.25 µg/mL).
